Results on 18 compounds are retold here after PMC9102017, “A Structure—Activity Relationship Study of the Inhibition of α-Amylase by Benzoic Acid and Its Derivatives” (Nutrients, 2022).

Where “and” joins values, the source holds several entries; their conditions need not be identical. Equal entries are not always repeated. Where two headings read alike, the source gives them in different places.

Assay [1] has as its target T1, Porcine pancreatic α-amylase (Sus scrofa, UniProt P00690).
T1 construct: purchased Sigma-Aldrich Chemical Co. (St. Louis, MO, USA) A3176
T1 sequence (P00690 16-511): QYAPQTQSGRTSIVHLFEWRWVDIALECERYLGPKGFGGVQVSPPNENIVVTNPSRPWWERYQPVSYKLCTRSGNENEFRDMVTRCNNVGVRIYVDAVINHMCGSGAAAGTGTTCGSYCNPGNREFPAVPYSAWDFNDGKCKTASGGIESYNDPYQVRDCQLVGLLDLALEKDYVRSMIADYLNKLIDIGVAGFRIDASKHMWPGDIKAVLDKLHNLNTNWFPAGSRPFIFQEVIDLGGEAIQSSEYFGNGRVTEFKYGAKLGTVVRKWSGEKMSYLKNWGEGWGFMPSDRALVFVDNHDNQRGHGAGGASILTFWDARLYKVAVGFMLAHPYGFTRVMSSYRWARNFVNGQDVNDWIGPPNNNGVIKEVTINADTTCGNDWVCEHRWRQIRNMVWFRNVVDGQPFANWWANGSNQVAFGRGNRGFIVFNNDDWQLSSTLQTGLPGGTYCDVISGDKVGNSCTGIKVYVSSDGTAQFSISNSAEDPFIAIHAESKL
Kind of assay: In vitro α-amylase inhibition assay (starch/DNS, absorbance at 540 nm). Conditions: for IC50: 0.2 M potassium phosphate buffer pH 6.8, 37 °C, mean ± SD, triplicate, read-out: IC50 Values against α-Amylase (converted); for inhibited α-amylase more than the analogue without the 2-hydroxyl group: compared with 4-hydroxybenzoic acid (Group 1) or 3,4-dihydroxybenzoic acid (Group 2), Figure 1. The class given is biochemical. On the procedure:
The α-amylase inhibition assay was adapted from Phan et al. with slight modifications. In order to simulate the small intestine conditions, a buffer pH of 6.8 and an incubation temperature of 37 °C were used. Porcine pancreatic α-amylase was dissolved in 0.2 M potassium phosphate buffer (pH 6.8). Phenolic acid solutions were prepared in 80% DMSO. […] An aliquot of 50 μL of phenolic acid solution (10, 20, 30, 40 and 50 mM) was mixed with 400 μL of 0.2 M potassium phosphate buffer (pH 6.8 with 7 mM NaCl) in a 2 mL tube. After adding 100 μL of the enzyme solution (0.5 unit/mL), the tube was incubated at 37 °C for 5 min. Subsequently, 450 μL of the cooked soluble starch solution (5 mg/mL) was added to initiate the reaction at 37 °C for 20 min, followed by the addition of 500 μL of DNS reagent, and then the tubes were boiled for 15 min at 100 °C to inactivate the enzyme. A total of 200 μL of the reaction solution was transferred to a 96-well plate and the absorbance was measured at 540 nm using a microplate reader (Tecan Infinite 200 PRO; Tecan, Männedorf, Zürich, Switzerland). All of the samples were prepared and measured in triplicate. The inhibition rate was calculated using the following formula: (1) Inhibition(%)={1−A[sample]−A[blank]/A[control+]−A[control−]}×100 where:
A [control+] is absorbance at 100% enzyme activity (buffer with starch and enzyme);
A [control−] is starch background absorbance (buffer and starch without enzyme);
A [sample] is test sample absorbance (buffer with enzyme, starch and inhibitor);
A [blank] is inhibitor and starch background absorbance (a test sample without enzyme).
The inhibition rates were plotted against the logarithmic values of six concentrations of the test inhibitor and a non-linear regression analysis was employed to generate a dose-response curve and calculate the IC50 values (mM and mg/mL).

Another assay concerns the target α-amylase. The note with it: cited from earlier work.
[2] abbreviates: lower buffer concentration (0.02 M) than in this study, read-out: IC50 previously reported.
[3] abbreviates: recent studies, read-out: IC50 for α-amylase.

For orientation: IC50 means the concentration needed to halve the response being measured. Regarding `Cc1cc(O)ccc1C(=O)O` [Compound 9, 4-Hydroxy-2-methylbenzoic acid], in assay [1], the IC50 is 23.4 mM. On to `O=C(O)c1ccc(O)c(O)c1` [Compound 4, 3,4-Dihydroxybenzoic acid], for which the concentration for half-maximal inhibition (IC50) was 25.4 mM in assay [1] and 11.5 ± 0.45 mM at α-amylase (setting [2]). As for `Cc1cc(O)cc(O)c1C(=O)O` [Compound 12, 2,4-Dihydroxy-6-methylbenzoic acid], the IC50 in assay [1] is 18.1 mM.

In the case of `O=C(O)c1ccccc1` [Compound 1, Benzoic acid], the 50% inhibitory concentration (IC50) in assay [1] was 45.2 mM. Regarding `Cc1ccc(C(=O)O)cc1` [Compound 8, 4-Methylbenzoic acid], in assay [1], the 50% inhibitory concentration (IC50) is 52.3 mM. With `O=C(O)c1c(O)cc(O)cc1O` [Compound 6, 2,4,6-Trihydroxybenzoic acid], the half-maximal inhibitory concentration (IC50) in assay [1] is 20.6 mM. The same measure, in the same setting: the figure for `Cc1cc(C(=O)O)cc(C)c1O` [Compound 11, 4-Hydroxy-3,5-dimethylbenzoic acid] is 26 mM. For `O=C(O)c1ccc(O)cc1O` [Compound 3, 2,4-Dihydroxybenzoic acid], in assay [1], the half-maximal inhibitory concentration (IC50) is 19.3 mM and the “inhibited α-amylase more than the analogue without the 2-hydroxyl group” value is given as 33.31%. Regarding `Cc1cc(C(=O)O)ccc1O` [Compound 10, 4-Hydroxy-3-methylbenzoic acid], the IC50 in assay [1] is 28.6 mM. With `O=C(O)c1cc(O)c(O)c(O)c1` [Compound 7, 3,4,5-Trihydroxybenzoic acid], the values for the half-maximal inhibitory concentration (IC50) (in assay [1]; at α-amylase (setting [2]); at α-amylase (setting [3])) were 26.1 mM, 7.46 ± 0.24 mM and 1.25 mM, respectively. For `COc1cc(C(=O)O)cc(O)c1O` [Compound 16, 3,4-Dihydroxy-5-methoxybenzoic acid], the IC50 in assay [1] was 37.8 mM. Still for that read-out and setting: as for `O=C(O)c1ccc(O)cc1` [Compound 2, 4-Hydroxybenzoic acid], the figure is 25.7 mM. On to `COc1cc(C(=O)O)cc(OC)c1O` [Compound 17, 4-Hydroxy-3,5-dimethoxybenzoic acid], for which the IC50 in assay [1] was 32.2 mM; at α-amylase (setting [3]), 44.8 mM. With `COc1cc(O)ccc1C(=O)O` [Compound 14, 4-Hydroxy-2-methoxybenzoic acid], in assay [1], the half-inhibitory concentration (IC50) was 48.9 mM. As to `O=C(O)c1cc(O)ccc1O` [2,5-dihydroxybenzoic acid, reference compound], the 50% inhibitory concentration (IC50) on α-amylase (setting [3]) is 0.298 mM. For `COc1ccc(C(=O)O)cc1` [Compound 13, 4-Methoxybenzoic acid], the IC50 in assay [1] is 44.2 mM and 44.1 mM.

In the case of `O=C(O)c1ccc(O)c(O)c1O` [Compound 5, 2,3,4-Trihydroxybenzoic acid], the values for the IC50 (in assay [1]; at α-amylase (setting [3])) were 17.3 mM and 33.3 mM, respectively. For the same compound, the “inhibited α-amylase more than the analogue without the 2-hydroxyl group” value in assay [1] came out at 46.56%. For the compound `COc1cc(C(=O)O)ccc1O` [Compound 15, 4-Hydroxy-3-methoxybenzoic acid], the IC50 was 24.4 mM in assay [1] and 27.9 mM on α-amylase (setting [3]).
